Where two headings read alike, the source gives them in different places.
Assays:
OCT2 (hOCT2) [1] = biological target: T1, OCT2 (hOCT2) (Homo sapiens, UniProt O15244); test: OCT2 transport inhibition; format: cell-based; details: models overexpressing hOCT2, Supplementary Figure S4D
T1 construct: expressed in transfected cells; host or cells: overexpressing cell model
T1 sequence (O15244 1-555): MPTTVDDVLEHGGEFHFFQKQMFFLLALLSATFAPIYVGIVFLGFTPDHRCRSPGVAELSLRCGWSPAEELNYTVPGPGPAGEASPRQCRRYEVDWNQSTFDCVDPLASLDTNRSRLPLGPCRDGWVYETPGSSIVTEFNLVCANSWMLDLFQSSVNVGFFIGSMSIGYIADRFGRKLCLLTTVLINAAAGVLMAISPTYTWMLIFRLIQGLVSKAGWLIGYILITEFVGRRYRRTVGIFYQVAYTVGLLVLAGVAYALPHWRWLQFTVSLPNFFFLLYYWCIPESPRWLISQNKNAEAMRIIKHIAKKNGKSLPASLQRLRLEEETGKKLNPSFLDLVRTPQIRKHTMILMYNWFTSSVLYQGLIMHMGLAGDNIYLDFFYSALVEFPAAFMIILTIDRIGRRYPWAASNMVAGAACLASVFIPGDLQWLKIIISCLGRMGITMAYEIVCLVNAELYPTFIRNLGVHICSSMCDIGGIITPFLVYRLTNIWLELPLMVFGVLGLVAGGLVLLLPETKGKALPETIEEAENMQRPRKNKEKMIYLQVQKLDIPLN
Description: (§1) Uptake assays were performed with radiolabeled TEA (2 µM) or metformin (5 µM) as described previously ([Sprowl et al., 2013]; [Pabla et al., 2015]) in the presence or absence of TKIs. The results were normalized to uptake values in cells stably transfected with an empty vector treated with vehicle alone (Supplementary Figure S1). Prior to cellular accumulation experiments, cells were grown to 90% confluence on poly-lysine coated multi-well plates. For uptake studies, cells were rinsed with warm PBS and incubated in the presence of a vehicle or inhibitor, prepared in serum and phenol red-free DMEM media for 15 min. Subsequently, media was removed followed by the addition of radiolabeled TEA and metformin along with inhibitor, and cellular uptake was measured after a 15-min co-incubation period. Total radioactivity originating from TEA and metformin was determined using liquid scintillation counting after lysing the cells with 1 N NaOH, a neutralizing step with 2 M HCl. A Pierce protein assay (Thermo Fisher Scientific, Waltham, MA) was used to normalize radioactivity readings to account for variation in cell number between samples.

mouse OCT1 (mOCT1) = biological target: T2, mouse OCT1 (mOCT1) (Mus musculus, UniProt O08966); test: Cellular uptake of [14C] TEA in HEK293 cells overexpressing mOCT1, with or without inhibitor; format: cell-based
T2 construct: expressed in transfected cells
T2 sequence (O08966 1-556): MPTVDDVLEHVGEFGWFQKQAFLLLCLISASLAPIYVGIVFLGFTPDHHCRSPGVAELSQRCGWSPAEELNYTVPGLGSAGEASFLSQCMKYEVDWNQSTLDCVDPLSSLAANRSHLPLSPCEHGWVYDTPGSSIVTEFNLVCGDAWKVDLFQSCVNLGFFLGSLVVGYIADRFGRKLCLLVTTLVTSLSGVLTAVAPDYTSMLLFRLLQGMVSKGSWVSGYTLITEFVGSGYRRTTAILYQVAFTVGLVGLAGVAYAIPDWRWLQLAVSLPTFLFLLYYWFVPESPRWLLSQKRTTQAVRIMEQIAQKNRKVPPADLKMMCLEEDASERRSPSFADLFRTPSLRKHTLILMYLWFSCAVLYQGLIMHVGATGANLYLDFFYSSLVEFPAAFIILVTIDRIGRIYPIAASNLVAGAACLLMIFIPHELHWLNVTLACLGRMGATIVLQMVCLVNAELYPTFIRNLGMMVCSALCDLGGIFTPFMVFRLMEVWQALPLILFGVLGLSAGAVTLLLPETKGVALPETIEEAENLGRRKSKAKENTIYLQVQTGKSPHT
Description: (§2) Human embryonic kidney (HEK293) cells were obtained from the American Type Culture Collection (ATCC, Manassas, VA). HEK293 cells stably transfected with mouse OCT1 (mOCT1) or human OCT1 (hOCT1) were cultured in Dulbecco’s Modified Eagle Media (DMEM) media supplemented with 10% fetal bovine serum (FBS) and grown at 37°C in a humidified incubator containing 5% CO2. Radiolabeled [^14C] TEA and [^14C] metformin were obtained from American Radiochemicals (St. Louis, MO). Cellular uptake assays were performed 48 h following transient transfection by Lipofectamine 3000 Transfection Reagent (Thermo Fisher Scientific, Waltham, MA). ON-TARGETplus Human YES1 siRNA was obtained from Dharmacon (Lafayette, CO). RNA extraction kits were obtained from Omega Bio-tek (Norcross, GA).
as §1

human OCT1 (hOCT1) = biological target: T3, human OCT1 (hOCT1) (Homo sapiens, UniProt O15245); test: Cellular uptake of [14C] TEA or [14C] metformin in HEK293 cells overexpressing hOCT1, with or without inhibitor; format: cell-based; details: for OCT1 function (TEA transport) in presence of TKI: HEK293-hOCT1, TKI 10 µM, Figure 2D
T3 construct: expressed in transfected cells
T3 sequence (O15245 1-554): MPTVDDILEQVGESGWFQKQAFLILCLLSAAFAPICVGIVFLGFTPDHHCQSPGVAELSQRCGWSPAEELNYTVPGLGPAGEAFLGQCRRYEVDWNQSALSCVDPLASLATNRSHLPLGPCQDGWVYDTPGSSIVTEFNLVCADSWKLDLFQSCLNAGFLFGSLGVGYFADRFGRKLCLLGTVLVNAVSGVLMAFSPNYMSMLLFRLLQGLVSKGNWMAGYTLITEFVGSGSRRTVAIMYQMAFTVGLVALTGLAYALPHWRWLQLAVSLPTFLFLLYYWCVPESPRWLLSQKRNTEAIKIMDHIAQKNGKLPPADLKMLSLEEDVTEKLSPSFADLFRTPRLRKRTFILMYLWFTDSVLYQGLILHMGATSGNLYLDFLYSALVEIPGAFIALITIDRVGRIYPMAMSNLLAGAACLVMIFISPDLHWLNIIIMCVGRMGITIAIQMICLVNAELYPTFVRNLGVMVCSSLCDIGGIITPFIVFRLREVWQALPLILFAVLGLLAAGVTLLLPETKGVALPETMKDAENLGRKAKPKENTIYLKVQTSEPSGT
Description: as §2
as §1, with “The” for “Uptake assays were performed with radiolabeled TEA (2 µM) or metformin (5 µM) as described previously ([Sprowl et al., 2013]; [Pabla et al., 2015]) in the presence or absence of TKIs. The”

OCT1 [2] = tested on: OCT1; design: method as in Furmanski et al., 2013; details: ref Furmanski et al., 2013; cited from earlier work
YES1 / hOCT1 = test: Chemical genetics: hOCT1 uptake assay in HEK293 cells transfected with wild-type YES1 or T348I gatekeeper mutant, then dasatinib; format: cell-based, human; details: HEK293-hOCT1, dasatinib 1 µM 15 min, [14C] TEA uptake
Description: as §1, with “The” for “Uptake assays were performed with radiolabeled TEA (2 µM) or metformin (5 µM) as described previously ([Sprowl et al., 2013]; [Pabla et al., 2015]) in the presence or absence of TKIs. The”

hepatic OCT1 [3] = biological target: T4, hepatic OCT1 (Mus musculus, UniProt O08966); test: Plasma isobutyryl L-carnitine (IBC) after a single oral dose of dasatinib in mice; format: in vivo; design: from tissue; host or cells: liver of wild-type mice, in vivo; details: single oral dose 15 mg/kg
T4 sequence (O08966 1-556): T2 sequence (O08966 1-556)

OCT1 (mouse and human) = test: Dose-response OCT1 uptake inhibition, summarised across mOCT1 and hOCT1 models and test substrates; format: cell-based; details: mouse and human, probe [14C] TEA (2 µM) or [14C] metformin (5 µM); range over mOCT1/hOCT1 models and test substrates
Description: as §2, §1

OCT1 [4] = test: as above; format: cell-based, human and mouse; details: for OCT1 inhibition: Yes/No; for OCT1 function in dose-response experiments: species-independent, regardless of test substrate
Description: as §2, §1

OCT3 = biological target: T5, OCT3 (Homo sapiens, UniProt O75751); test: OCT3 transport inhibition by TKIs (Supplementary Figure S2); format: cell-based
T5 sequence (O75751 1-556): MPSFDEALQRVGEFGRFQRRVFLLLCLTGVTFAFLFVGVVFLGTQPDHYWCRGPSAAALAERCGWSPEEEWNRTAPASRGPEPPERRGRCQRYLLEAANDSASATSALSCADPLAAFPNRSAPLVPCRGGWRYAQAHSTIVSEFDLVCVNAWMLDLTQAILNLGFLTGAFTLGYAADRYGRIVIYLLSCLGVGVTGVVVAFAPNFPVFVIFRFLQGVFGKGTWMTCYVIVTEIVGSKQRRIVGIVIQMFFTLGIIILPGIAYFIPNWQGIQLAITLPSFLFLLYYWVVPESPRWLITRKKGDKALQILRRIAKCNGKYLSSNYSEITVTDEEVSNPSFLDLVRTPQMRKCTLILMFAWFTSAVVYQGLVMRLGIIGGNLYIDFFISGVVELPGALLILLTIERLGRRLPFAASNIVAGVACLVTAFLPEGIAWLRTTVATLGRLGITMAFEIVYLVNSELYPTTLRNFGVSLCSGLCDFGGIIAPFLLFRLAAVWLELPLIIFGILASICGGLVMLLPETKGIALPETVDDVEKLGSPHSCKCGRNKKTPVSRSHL
Description: as §1

OCT2 (hOCT2) [5] = biological target: T1, OCT2 (hOCT2); details: cited from earlier work; for OCT2 inhibition: Yes/No, TKIs previously found to inhibit OCT2
hepatic OCT1 [6] = biological target: T4, hepatic OCT1; details: OCT1/2-deficient vs wild-type mice, [14C] TEA 0.2 mg/kg i.v.
YES1 = details: read-out: YES1 Kd; ref Klaeger et al., 2017; KINOMEscan data—HMS LINCS Project, 2020; cited from earlier work

| OCT3 function in presence of TKI (OCT3) | OCT1 function (TEA transport) in presence of TKI (human OCT1 (hOCT1)) | SMILES | IC50 at 15 min (OCT1 (mouse and human)) [nM] | OCT1 inhibition (OCT1 [4]) | OCT1 function in dose-response experiments (OCT1 [4]) | OCT2 inhibition (OCT2 (hOCT2) [5]; ref Sprowl et al., 2016) | also measured |
| --- | --- | --- | --- | --- | --- | --- | --- |
| – | not | CS(=O)(=O)CCNCc1ccc(-c2ccc3ncnc(Nc4ccc(OCc5cccc(F)c5)c(Cl)c4)c3c2)o1 [Lapatinib, lapatinib] | – | No | – | No | – |
| no influence | inhibit OCT1 function | COc1cc(Nc2c(C#N)cnc3cc(OCCCN4CCN(C)CC4)c(OC)cc23)c(Cl)cc1Cl [bosutinib] | – | – | – | – | – |
| potently inhibiting | inhibit OCT1 function | CCN(CC)CCNC(=O)c1c(C)[nH]c(/C=C2\C(=O)Nc3ccc(F)cc32)c1C [sunitinib] | – | – | – | – | – |

Further lines, the compound ahead of its results:

| SMILES | OCT3 function in presence of TKI (OCT3) | OCT1 function (TEA transport) in presence of TKI (human OCT1 (hOCT1)) | IC50 at 15 min (OCT1 (mouse and human)) [nM] | OCT1 inhibition (OCT1 [4]) | OCT1 function in dose-response experiments (OCT1 [4]) | OCT2 inhibition (OCT2 (hOCT2) [5]; ref Sprowl et al., 2016) | also measured |
| --- | --- | --- | --- | --- | --- | --- | --- |
| Cc1cc2cc(C(=O)c3cnn(-c4cnc(Oc5c(F)cccc5F)cc4C)c3N)[nH]c2cc1NS(C)(=O)=O [CH6953755] | – | – | – | – | – | – | inhibition of hOCT2-mediated transport (OCT2 (hOCT2) [1]): also observed; inhibition of mOCT1-mediated transport (mouse OCT1 (mOCT1); models overexpressing mOCT1, Supplementary Figure S4C): also observed; IC50 (human OCT1 (hOCT1); HEK293-hOCT1, [14C] TEA 2 µM, 15 min pre-incubation + 15 min co-incubation, read-out: IC50, hOCT1-mediated transport of TEA): 2760 nM; IC50 (human OCT1 (hOCT1); HEK293-hOCT1, [14C] metformin 5 µM, read-out: IC50, hOCT1-mediated transport of metformin): 2310 nM |
| Cc1nc(Nc2ncc(C(=O)Nc3c(C)cccc3Cl)s2)cc(N2CCN(CCO)CC2)n1 [Dasatinib, dasatinib] | potently inhibiting | inhibit OCT1 function | […] | Yes | potently inhibited | Yes | transported substrate of OCT1 (OCT1 [2]): not themselves transported substrate; IC50 (mouse OCT1 (mOCT1); HEK293-mOCT1, [14C] TEA 2 µM, 15 min pre-incubation + 15 min co-incubation, read-out: IC50, mOCT1-mediated transport of TEA): […]; Ki (mouse OCT1 (mOCT1); read-out: inhibition constant (Ki), Dixon plot, mOCT1): 870 nM; dasatinib-mediated OCT1 inhibition in cells with TKI-resistant YES1 (T348I gatekeeper) mutant (YES1 / hOCT1): rescue; dasatinib-mediated OCT1 inhibition in cells with YES1 wild-type construct (YES1 / hOCT1): retained sensitivity; plasma levels of IBC after dasatinib, OCT1/2-deficient or OCT1/2/MATE1-deficient mice (hepatic OCT1 [3]): not; plasma levels of IBC after dasatinib, wild-type mice (hepatic OCT1 [3]; wild-type mice): transient, statistically significant increase; OCT2 inhibition, co-incubation designs (OCT2 (hOCT2) [5]; ref Minematsu and Giacomini, 2011): only a weak inhibitor; OCT2 function, pre-incubation conditions (OCT2 (hOCT2) [5]; ref Sprowl et al., 2016): potently inhibits |
| CCc1nc(C(N)=O)c(Nc2ccc(N3CCC(N4CCN(C)CC4)CC3)c(OC)c2)nc1NC1CCOCC1 [Gilteritinib, gilteritinib] | no influence | inhibit OCT1 function | 10 to 20 | Yes | potently inhibited | Yes | – |
| C=CC(=O)N1CCC[C@@H](n2nc(-c3ccc(Oc4ccccc4)cc3)c3c(N)ncnc32)C1 [Ibrutinib, ibrutinib] | no influence | inhibit OCT1 function | 890 to 1180 | Yes | potently inhibited | Yes | – |
| CC[N+](CC)(CC)CC [TEA, tetraethylammonium] | – | – | – | – | – | – | hepatic uptake of TEA (liver-to-plasma concentration ratio) in OCT1/2-deficient mice (hepatic OCT1 [6]): dramatically reduced |
| COc1cc2c(Nc3ccc(Br)cc3F)ncnc2cc1OCC1CCN(C)CC1 [Vandetanib, vandetanib] | – | inhibit OCT1 function | 1350 to 9050 | Yes | potently inhibited | Yes | Kd (YES1): 120 nM |
